The values below come from ChEMBL document CHEMBL1142499 (Bioorg Med Chem Lett, 2008).

Data set [1] can be described thus: Cmax in po dosed squirrel monkey assessed after first episode of emesis. Format: ADME, organism-based, Saimiri sciureus. Set-up: route oral. To be noted: in vivo.
Data set [2] can be described thus: Bioavailability in orally and iv dosed Squirrel monkey. It counts as ADME, organism-based, Saimiri sciureus. To be noted: in vivo, po.
Data set [3] can be described thus: Half life in orally and iv dosed Squirrel monkey. It counts as ADME, organism-based, Saimiri sciureus. To be noted: in vivo.
Data set [4] is described as follows: Half life in orally and iv dosed dog. It counts as ADME, organism-based, Canis lupus familiaris. To be noted: in vivo.
The next data set has as its system Ovis aries. The experiment in a line: Inhibition of late-phase antigen-induced bronchoconstriction in ascaris-sensitive sheep at 0.5 mg/kg, iv daily for 4 days and antigen challenged after 2 hrs post dose on 4th day. Format: functional.
Data set [5] in a line: Bioavailability in orally and iv dosed dog. Format: ADME, organism-based, Canis lupus familiaris. The conditions noted are these: in vivo, po.
Data set [6] is described as follows: Half life in orally and iv dosed rat. It counts as ADME, organism-based. To be noted: in vivo.
Data set [7] can be described thus: Bioavailability in orally and iv dosed rat. To be noted: in vivo, po. Format: ADME, organism-based.
The target of data set [8] is Voltage-gated inwardly rectifying potassium channel KCNH2 (Homo sapiens, UniProt Q12809).
The subject of data set [9] is Blood. The experiment in a line: Inhibition of LPS-induced TNFalpha production in human whole blood. It counts as functional, tissue-based.
The target in data set [10] is 3',5'-cyclic-AMP phosphodiesterase 4A (Homo sapiens, UniProt P27815). Put plainly: Intrinsic inhibition of GST-fused human PDE4A expressed in SF9 cells.
The test system of data set [11] is Blood. The experiment in a line: Inhibition of LPS-induced TNFalpha production in Squirrel monkey whole blood. The conditions noted are these: Saimiri sciureus. It counts as functional, tissue-based.
The next data set concerns the target Cytochrome P450 2C9 (Homo sapiens, UniProt P11712). Put plainly: Inhibition of CYP2C9. It counts as ADME.
A short description of data set [12]: Ratio of emesis Cmax in Squirrel monkey at 2 mg/kg, po to IC50 for LPS-induced TNFalpha production in Squirrel monkey whole blood. Format: functional, Saimiri sciureus.
The subject of a further data set is Cavia porcellus. The experiment in a line: Inhibition of ovalbumin-induced bronchoconstriction in conscious guinea pig at 0.03 mg/kg, ip administered 30 mins before ovalbumin challenge. Format: functional. The conditions noted are these: route intraperitoneal.

Sequence of Voltage-gated inwardly rectifying potassium channel KCNH2 (Q12809 whole entry): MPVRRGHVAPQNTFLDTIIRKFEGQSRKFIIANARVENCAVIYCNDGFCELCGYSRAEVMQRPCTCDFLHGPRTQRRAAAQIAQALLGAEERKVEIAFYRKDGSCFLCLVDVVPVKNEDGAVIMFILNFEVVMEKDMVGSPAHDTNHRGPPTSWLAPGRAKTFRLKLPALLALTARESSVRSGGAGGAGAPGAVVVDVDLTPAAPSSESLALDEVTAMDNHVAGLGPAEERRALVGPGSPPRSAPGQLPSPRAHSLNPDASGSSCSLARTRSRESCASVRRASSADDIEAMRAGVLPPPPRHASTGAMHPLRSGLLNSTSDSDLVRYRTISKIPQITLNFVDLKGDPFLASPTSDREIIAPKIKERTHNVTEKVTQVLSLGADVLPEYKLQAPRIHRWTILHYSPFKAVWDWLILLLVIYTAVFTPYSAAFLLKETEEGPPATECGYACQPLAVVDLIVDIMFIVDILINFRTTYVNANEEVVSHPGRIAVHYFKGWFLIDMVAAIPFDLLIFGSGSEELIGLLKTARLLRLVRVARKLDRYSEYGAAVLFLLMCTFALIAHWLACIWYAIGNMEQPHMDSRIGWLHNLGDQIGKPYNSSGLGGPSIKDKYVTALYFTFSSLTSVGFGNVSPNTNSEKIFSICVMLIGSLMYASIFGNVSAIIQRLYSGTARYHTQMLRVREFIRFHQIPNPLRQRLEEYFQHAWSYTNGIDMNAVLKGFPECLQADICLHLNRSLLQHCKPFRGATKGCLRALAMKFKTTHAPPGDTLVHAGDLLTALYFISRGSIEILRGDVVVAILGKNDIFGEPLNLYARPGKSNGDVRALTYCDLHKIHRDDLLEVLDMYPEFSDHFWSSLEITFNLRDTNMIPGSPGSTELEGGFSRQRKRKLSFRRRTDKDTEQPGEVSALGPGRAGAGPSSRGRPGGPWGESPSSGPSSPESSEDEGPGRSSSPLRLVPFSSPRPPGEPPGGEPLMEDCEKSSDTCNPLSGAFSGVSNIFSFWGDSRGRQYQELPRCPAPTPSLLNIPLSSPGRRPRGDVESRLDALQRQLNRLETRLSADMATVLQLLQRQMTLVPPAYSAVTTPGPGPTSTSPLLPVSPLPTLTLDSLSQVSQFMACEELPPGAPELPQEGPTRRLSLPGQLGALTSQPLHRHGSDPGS
Sequence of 3',5'-cyclic-AMP phosphodiesterase 4A (P27815 whole entry, the tested form may be a part): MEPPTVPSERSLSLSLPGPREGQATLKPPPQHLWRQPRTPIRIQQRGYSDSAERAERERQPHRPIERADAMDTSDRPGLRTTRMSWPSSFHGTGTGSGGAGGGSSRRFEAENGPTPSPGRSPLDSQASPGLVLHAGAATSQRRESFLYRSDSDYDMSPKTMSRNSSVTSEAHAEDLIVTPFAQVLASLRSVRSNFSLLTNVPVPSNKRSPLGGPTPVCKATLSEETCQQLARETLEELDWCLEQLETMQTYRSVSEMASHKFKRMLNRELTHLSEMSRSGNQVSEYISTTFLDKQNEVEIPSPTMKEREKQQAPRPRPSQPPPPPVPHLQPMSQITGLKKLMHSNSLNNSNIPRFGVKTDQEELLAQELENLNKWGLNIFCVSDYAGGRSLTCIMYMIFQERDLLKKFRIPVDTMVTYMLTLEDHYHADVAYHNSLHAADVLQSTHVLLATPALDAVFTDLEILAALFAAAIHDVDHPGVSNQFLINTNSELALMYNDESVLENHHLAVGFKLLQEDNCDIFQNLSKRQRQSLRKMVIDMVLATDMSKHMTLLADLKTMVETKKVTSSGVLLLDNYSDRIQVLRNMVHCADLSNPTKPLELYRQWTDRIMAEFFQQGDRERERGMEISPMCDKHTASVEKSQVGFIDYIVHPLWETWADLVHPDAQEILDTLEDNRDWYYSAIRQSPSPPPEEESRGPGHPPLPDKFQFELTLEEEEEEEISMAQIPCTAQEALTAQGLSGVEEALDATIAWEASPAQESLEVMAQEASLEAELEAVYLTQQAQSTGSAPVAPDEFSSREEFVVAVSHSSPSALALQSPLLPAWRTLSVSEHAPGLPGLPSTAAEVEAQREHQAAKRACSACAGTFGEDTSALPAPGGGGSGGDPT
Sequence of Cytochrome P450 2C9 (P11712 whole entry): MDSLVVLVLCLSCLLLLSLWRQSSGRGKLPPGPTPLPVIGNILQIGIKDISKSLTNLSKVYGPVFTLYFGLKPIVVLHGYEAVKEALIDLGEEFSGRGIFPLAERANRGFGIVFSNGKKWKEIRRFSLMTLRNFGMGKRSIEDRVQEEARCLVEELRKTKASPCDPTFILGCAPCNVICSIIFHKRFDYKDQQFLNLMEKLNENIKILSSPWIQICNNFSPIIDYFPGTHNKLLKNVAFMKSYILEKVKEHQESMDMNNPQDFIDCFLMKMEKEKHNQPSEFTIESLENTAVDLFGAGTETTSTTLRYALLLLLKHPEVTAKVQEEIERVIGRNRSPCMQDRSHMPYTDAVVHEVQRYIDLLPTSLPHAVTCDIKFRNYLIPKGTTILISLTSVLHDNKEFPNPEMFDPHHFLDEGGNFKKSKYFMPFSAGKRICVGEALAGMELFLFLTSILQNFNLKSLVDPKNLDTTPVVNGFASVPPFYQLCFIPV

The term Cmax denotes the highest concentration seen after dosing. By bioavailability is commonly meant the share of a dose that reaches the circulation, judged against a reference dose that is usually intravenous. One may read the half-life as the time needed for the level to fall by half in the phase considered. For orientation: inhibition in vivo means the relative decrease from the control value, in per cent. Take `Cc1noc(/C(=C/c2cccc(-c3cc(C(C)(C)S(C)(=O)=O)cc4cccnc34)c2)c2ccc(S(C)(=O)=O)cc2)n1`: the concentration in [1] peaked (Cmax) at 3 µM. Besides, the bioavailability worked out at 33% in data set [2], 55% in [5] and 95% in [7]. Moreover, the half-life in [3] was 4 h; in data set [4], 5 h; in [6], 4 h. The inhibition in vivo at 0.5 mg/kg in the data set on Ovis aries worked out at 92%.
The term IC50 denotes the concentration that gives 50% inhibition. Consider `O=C(Nc1c(Cl)cncc1Cl)c1cn(-c2ccc(Cl)cc2)c2ncccc2c1=O`, for which the IC50 was 198 nM in data set [8], 180 nM in the data set with Blood [9] and 0.45 nM in data set [10].
For the compound `CC(C)NC(=O)c1cn(-c2cccc(Br)c2)c2ncccc2c1=O`, the IC50 in [8] came to 31600 nM; in the data set with Blood [9], 700 nM; in [10] it was 9.2 nM.
The matching figures for `CC(C)NC(=O)c1cn(-c2ccccc2)c2ncccc2c1=O`: 71500 nM, 700 nM and 15.3 nM.
As for `CCOc1cccc(-c2cccc(-n3cc(C(=O)NC(C)C)c(=O)c4cccnc43)c2)c1`, the figures for the IC50 (in [8]; in the data set with Blood [9]; in data set [10]) were 2700 nM, 840 nM and 1.54 nM, respectively.
`CC(C)N(C)C(=O)c1cn(-c2cccc(Br)c2)c2ncccc2c1=O` yielded a half-maximal inhibitory concentration (IC50) in data set [10] greater than 1000 nM.
In the case of `CC(C)CNC(=O)c1cn(-c2cccc(Br)c2)c2ncccc2c1=O`, the half-inhibitory concentration (IC50) in the data set with Blood [9] worked out at 2100 nM; in data set [10] it was 3.54 nM.
`Cc1ccc2c(=O)c(C(=O)NC(C)C)cn(-c3cccc(Br)c3)c2n1` showed an IC50 in [10] greater than 1000 nM.
`NC(=O)c1cn(-c2cccc(Br)c2)c2ncccc2c1=O`: the IC50 in data set [8] was greater than 94500 nM; in [10], 141 nM.
`CC(=O)c1cccc(-c2cccc(-n3cc(C(=O)NC(C)C)c(=O)c4cccnc43)c2)c1`: the IC50 in [8] was 6960 nM; in the data set with Blood [9] it was 470 nM; in data set [10] it was 0.37 nM.
The matching figures for `CC(C)NC(=O)c1cn(-c2cccc(-c3ccc(S(C)(=O)=O)cc3)c2)c2ncccc2c1=O`: 23000 nM, 69 nM and 0.62 nM.
`O=C(NC1CC1)c1cn(-c2cccc(-c3ccncc3)c2)c2ncccc2c1=O`: the IC50 was found to be 18600 nM in [8] and 670 nM in the data set with Blood [9].
The matching figures for `CS(=O)(=O)c1ccc(-c2cccc(-n3cc(C(=O)NC4CC4)c(=O)c4cccnc43)c2)cn1`: 13600 nM and 140 nM.
Turning to `CSc1ccc(-c2cccc(-n3cc(C(=O)NC(C)C)c(=O)c4cccnc43)c2)cc1`, the results for the IC50 (in data set [8]; with Blood [9]; in data set [10]) were 960 nM, 650 nM and 0.75 nM, respectively.
The compound `CC(C)(O)c1ccc(-c2cccc(-n3cc(C(=O)NC4CC4)c(=O)c4cccnc43)c2)c[n+]1[O-]` had a Cmax in data set [1] of 3.7 µM. Moreover, the IC50 turned out to be 50100 nM in [8]; 7 nM in the data set with Blood [11]; 120 nM in the data set with Blood [9]; 59000 nM on Cytochrome P450 2C9; 6.2 nM in data set [10]. The bioavailability in data set [2] amounted to 33%; in [5], 100%; in [7], 87%. For the same compound, the values for the half-life in [3], in [4] and in data set [6] were 4 h, 2 h and 1.5 h, respectively. At 0.5 mg/kg the inhibition in vivo with Ovis aries was 84%. The Ratio in data set [12] is given as 530. The compound also showed an inhibition in vivo at 0.03 mg/kg in the data set with Cavia porcellus of 69%.
Consider `Cc1noc(/C(=C/c2cccc(-n3cc(C(=O)Nc4c(Cl)cncc4Cl)c(=O)c4cccnc43)c2)c2ccc(S(C)(=O)=O)cc2)n1`, for which the IC50 with Blood [9] was found to be 3 nM; in data set [10] it was 0.06 nM.
In data set [10], `Cc1ccc(-n2cc(C(=O)NC(C)C)c(=O)c3cccnc32)cc1Br` yielded an IC50 of 66.5 nM.
In the case of `CC(=O)c1cccc(-c2cccc(-n3cc(C(=O)Nc4c(Cl)cncc4Cl)c(=O)c4cccnc43)c2)c1`, the half-inhibitory concentration (IC50) turned out to be 5 nM with Blood [9] and 0.17 nM in data set [10].
Turning to `CC(=O)c1ccc(-c2cccc(-n3cc(C(=O)NC(C)C)c(=O)c4cccnc43)c2)cc1`, the IC50 stood at 75 nM with Blood [9] and 0.34 nM in [10].
As for `O=C(NC1CC1)c1cn(-c2cccc(-c3cccnc3)c2)c2ncccc2c1=O`, in the data set with Blood [9], half-maximal inhibition (IC50) was put at 160 nM.
As for `CC(C)(O)c1ccc(C#Cc2cccc(-n3cc(C(=O)NC4CC4)c(=O)c4cccnc43)c2)c[n+]1[O-]`, the IC50 was 89400 nM in data set [8] and 300 nM in the data set on Blood [9].
Compound `CC(C)(O)c1ccc(-c2cccc(-n3cc(C(=O)NC4CC4)c(=O)c4cccnc43)c2)cn1` yielded an IC50 with Blood [9] of 66 nM. The half-life in data set [6] is less than 0.5 h.
In the case of `O=C(NC1CC1)c1cn(-c2cccc(C#Cc3cccnc3)c2)c2ncccc2c1=O`, the IC50 in data set [8] turned out to be 16700 nM; in the data set on Blood [9] it was 160 nM.
Compound `O=C(NC1CC1)c1cn(-c2cccc(C#Cc3ccc[n+]([O-])c3)c2)c2ncccc2c1=O` [MK-0873] came in with a peak concentration (Cmax) in data set [1] of 5.1 µM. The bioavailability in [2] stood at 38%; in data set [5], 100%; in data set [7] it was 98%. Besides, the IC50 in the data set with Blood [11] is 23 nM; with Blood [9], 180 nM; on Cytochrome P450 2C9 it was 41000 nM; in data set [10] it was 6.7 nM. Also, the results for the half-life in [3], in data set [4] and in [6] were 5 h, 2 h and 2 h, respectively. Besides, testing at 0.5 mg/kg in the data set on Ovis aries gave an inhibition in vivo of 84%. Moreover, the inhibition in vivo at 0.03 mg/kg with Cavia porcellus came to 65%.
